Results taken from patent US20120172397A1, “HEXAHYDROCYCLOPENTA[f]INDAZOLE 5-YL ETHANOLS AND DERIVATIVES THEREOF AS SELECTIVE GLUCOCORTICOID RECEPTOR MODULATORS” (MERCK SHARP & DOHME CORP., priority 2009, published 2012).
Like-named read-outs stand apart in the source and are kept apart here.

How the values were obtained:
[1] = test system: human GR (MMTV-LUC reporter gene, A549 cells); test: Trans-Activation Modulation of Glucocorticoid Receptor Assay (GRAMMER), MMTV-LUC reporter in A549 cells; assay type: cell-based; details: for EC50: MMTV-LUC reporter, agonist mode, read-out: Transactivation A549 Cells GRAMMER IP (inflection point); for Emax / Transactivation A549 Cells GRAMMER Emax: Emax relative to the activity obtained with 300 nM dexamethasone; for Emax: read-out: Transactivation A549 Cells GRAMMER Emax
Text: Trans-Activation Modulation of Glucocorticoid Receptor Assay
This assay assesses the ability of test compounds to control transcription from the MMTV-LUC reporter gene in lung adenocarcinoma A549 cells or HeLa cells, a human […] cell line that naturally expresses the human GR. The assay measures induction of a modified MMTV LTR/promoter linked to the LUC reporter gene.
The routine transient assay consists of plating 7,000-25,000 cells/well of a white, clear-bottom 96-well plate. Alternatively, 384-well plates can be used at a cell concentration of 10,000 /well. The media that the cells are plated in is “exponential growth medium” which consists of phenol red-free RPMI1640 containing 10%FBS, 4 mM L-glutamine, 20 mM HEPES, 10 μg/mL human insulin, and 20 μg/mL gentamicin. Incubator conditions are 37° C. and 5% CO2. The transfection is done in batch mode. The cells are trypsinized and counted to the right cell number in the proper amount of fresh media. It is then gently mixed with the FuGene6/DNA mix and plated onto the 96 or 384-well plate, all the wells receive 100 μL or 40 μL, respectively, of medium +lipid/DNA complex then incubated 37° C. overnight. The transfection cocktail consists of serum-free OptiMEM, FuGene6 reagent and DNA. The manufacturer's (Roche Biochemical) protocol for cocktail setup is as follows: The lipid to DNA ratio is approximately 2.5:1 and the incubation time is 20 min at room temperature. Sixteen to 24 hours after transfection, the cells are treated with dexamethasone to a final concentration of 10 nM as well as the compound of interest, such that final DMSO (vehicle) concentration is equal to or less than 1%. Each plate also contains samples that are treated with 10 nM dexamethasone alone, which is used as the 100% activity control. The cells are exposed to the compounds for 24 hours. After 24 hours, the cells are lysed by a Promega cell culture lysis buffer for approximately 30 min and then the luciferase activity in the extracts is assayed in the 96-well format luminometer. In 384-well format, Steady-Glo (Promega) or Steady-Lite (PerkinElmer) can be used by adding an equal volume of reagent to the media present in each well. Activity induced by 10 nM dexamethasone alone is set at 100% activity. Antagonist activity is calculated by determining the decrease in dexamethasone-induced activity in response to compound treatment relative to samples that were treated with dexamethasone alone. Results are expressed as % inhibition of 10 nM dexamethasone activity or as fold of 10 nM dexamethasone activity. This transactivation assay can be performed in an agonist and antagonist mode to identify these different activities.
Activity of test compounds is calculated as the Emax relative to the activity obtained with 300 nM dexamethasone. Activity of test compounds is calculated as the Emax relative to the activity obtained with 300 nM DEX. The exemplified tissue selective glucocorticoid receptor modulators of the present invention display agonist activity in this assay of greater than 5% and less than 100%, and maximal transactivation activity less then maximal transrepression activity. […]

[2] = test system: human GR (TNFα promoter β-lactamase reporter, U937 cells); test: Transrepression Assay (GITAR), TNFα-β-lactamase reporter in U937 cells; assay type: cell-based; details: for EC50: TNFα-β-lactamase reporter, PMA/LPS stimulated, read-out: Transrepression U937 Cells GITAR IP (inflection point); for Emax / Transrepression U937 Cells GITAR Emax: activity repressed by 100 nM dexamethasone set as 100%
Text: This assay assesses the ability of test compounds to control transcription from the TNFα-β-lactamase reporter gene in U937 cells, a human myelomonocytic leukemia cell line that naturally expresses the human GR. The assay measures compound dependent-repression of the TNFa promoter linked to a reporter gene.
The human U937cells that had been stablely transfected with the TNF-α promoter driving β-lactamase are used for this assay. U937 cells contain an endogenous glucocorticoid receptor (GR). Cells are maintained in RPMI 1640 Growth medium (Gibco Cat#11875-093) containing 25 mM HEPES, 10% FBS, 2 mM L-Glutamine, 1 mM Sodium pyruvate, 25 μg/ml Gentamicin (Gibco Cat#15710-064), 1:1000 2-Mercaptoethanol (Gibco Cat#21985-023) and 0.8 mg/ml G418 (Gibco Cat#10131-027). The density of the cells in the flask needs to be about 1×106−3×10^6/ml at the time of harvest. Usually, the cells are split to 1.2˜1.4×10^5/ml (1:10) 3 days prior to the assay. 50,000 cells/well are plated in 96 well black-walled plates the day of assay. Test compounds are added 10 μL/well, and cells are incubated at 37° C. for 30-45 min. For assaying compounds, first dilute 1:10 in DMSO to make 1 mM, then further dilute 1:100 in medium to make 10 × stock prior to adding to the cells. Add 50 ng/ml PMA (Sigma, cat# P8139) 10 μL/well to a final concentration 5 ng/ml, and 1 μg/ml LPS (Sigma, cat# L4130) 10 μL/well to a final concentration 100 ng/ml. Incubate cells at […] overnight for˜18 hr. PMA is stored frozen as 100 μg/ml stock in DMSO. Dilute 1:10 in DMSO for a working stock of 10 μg/ml and store at −20° C. For assaying, dilute the 10 μg/ml working stock 1:200 in medium to make a 10× solution (50 ng/ml). Store frozen LPS at 1 mg/ml in PBS, dilute 1:1000 in medium to make 10× (1 μg/ml) for the assay. Add 6× loading buffer (CCF2-AM) 20 μL/well, and incubate at room temperature for 70˜90 min. […] The activity repressed by 100 nM dexamethasone alone is set as 100% activity.

[3] = Homo sapiens, U-937, U937 cells

SMILES | EC50 ([1]; Homo sapiens, A549, A549 cells) [nM] | EC50 [2, 3] [nM] | EC50 ([1]; A549 cells) [nM] | EC50 ([2]; U937 cells) [nM] | Emax ([1]; Homo sapiens, A549, A549 cells) [%] | Emax [2, 3] [%] | Transactivation A549 Cells GRAMMER Emax ([1]; A549 cells) [%] | Transrepression U937 Cells GITAR Emax ([2]; U937 cells) [%]
COc1ccc(C(O)C[C@H]2CCC3=Cc4c(cnn4-c4cccnc4)C[C@@]32C)cc1 (stereo partly drawn) [Example 5, 1-(4-methoxyphenyl)-2-[(4αR,5R)-4α-methyl-1-(pyridin-3-yl)-1,4,4α,5,6,7-hexahydrocyclopenta[f]indazol-5-yl] ethanol] | 53.4 | 20.7 | – | – | 90.7 | 87.3 | – | –
COc1cccc(C(O)C[C@H]2CCC3=Cc4c(cnn4-c4cccnc4)C[C@@]32C)c1 (single isomer, unassigned) [Example 4b] | – | – | 797 | 548 | – | – | 15.3 | 47.0
COc1ccc(C(O)C[C@H]2CCC3=Cc4c(cnn4-c4cccnc4)C[C@@]32C)cn1 (stereo partly drawn) [Example 3, 1-(6-methoxypyridin-3-yl)-2-[(4αR,5R)-4α-methyl-1-(pyridin-3-yl)-1,4,4α,5,6,7-hexahydrocyclopenta[f]indazol-5-yl] ethanol] | 160 | 200 | – | – | 101 | 85.2 | – | –
C[C@]12Cc3cnn(-c4cccnc4)c3C=C1CC[C@@H]2CC(O)c1ccccn1 (single isomer, unassigned) [Example 6b] | – | – | 1430 | 1380 | – | – | 2.2 | 30.0
COc1cccc(C(O)C[C@H]2CCC3=Cc4c(cnn4-c4cccnc4)C[C@@]32C)c1 (single isomer, unassigned) [Example 4a] | 472 | – | – | 114 | – | – | 47.7 | 74.8

Now from value to compound, other results behind:

EC50 ([1]; Homo sapiens, A549, A549 cells) [nM] | EC50 [2, 3] [nM] | EC50 ([1]; A549 cells) [nM] | EC50 ([2]; U937 cells) [nM] | SMILES | Emax ([1]; Homo sapiens, A549, A549 cells) [%] | Emax [2, 3] [%] | Transactivation A549 Cells GRAMMER Emax ([1]; A549 cells) [%] | Transrepression U937 Cells GITAR Emax ([2]; U937 cells) [%]
– | – | 74.3 | 78.7 | CC(O)(C[C@H]1CCC2=Cc3c(cnn3-c3cccnc3)C[C@@]21C)c1ccccc1 (single isomer, unassigned) [Example 7a] | – | 84.2 | 53.1 | –
– | – | 316 | 393 | CC(O)(C[C@H]1CCC2=Cc3c(cnn3-c3cccnc3)C[C@@]21C)c1ccccc1 (single isomer, unassigned) [Example 7b] | – | – | 20.0 | 65.9
– | – | 301 | 229 | COc1ccccc1C(O)C[C@H]1CCC2=Cc3c(cnn3-c3cccnc3)C[C@@]21C (single isomer, unassigned) [Example 2a] | – | – | 68.5 | 79.5
1170 | – | – | 558 | C[C@]12Cc3cnn(-c4cccnc4)c3C=C1CC[C@@H]2CC(O)c1ccccn1 (single isomer, unassigned) [Example 6a] | 1.6 | 16.6 | – | –
– | – | 812 | 1160 | COc1ccccc1C(O)C[C@H]1CCC2=Cc3c(cnn3-c3cccnc3)C[C@@]21C (single isomer, unassigned) [Example 2b] | – | 73.9 | 21.5 | –
– | – | 343 | 277 | C[C@]12Cc3cnn(-c4cccnc4)c3C=C1CC[C@@H]2CC(O)c1ccccc1 (single isomer, unassigned) [Example 1a] | – | – | 29.7 | 75.4
– | – | 811 | 1720 | C[C@]12Cc3cnn(-c4cccnc4)c3C=C1CC[C@@H]2CC(O)c1ccccc1 (single isomer, unassigned) [Example 1b] | – | – | 8.5 | 49.3
